The NIST ThermoML archive (doi:10.1021/je049894j)
± gives the expanded uncertainty stated by the source.

Details: Liquid

vapor or sublimation pressure (468.15 K)	vapor or sublimation pressure (483.15 K)	vapor or sublimation pressure (498.15 K)	vapor or sublimation pressure (513.15 K)	SMILES
833 ± 26 kPa	1182 ± 37 kPa	1558 ± 48 kPa	2027 ± 63 kPa	CCCCO [butan-1-ol]
1351 ± 31 kPa	1791 ± 39 kPa	2329 ± 49 kPa	2946 ± 60 kPa	CCC(C)O (centres undefined) [butan-2-ol]
3286 ± 100 kPa	–	–	–	CCCCC [pentane]
